Reference: patent US8299302B2 (priority 2007, dated 2012)
Read-outs that look alike come from different tables or passages of the source. Blank lines part the entries; values can stand above or below the molecule they belong to.

Experiments:
Botrytis cinerea = assay: Botrytis test (bean) / protective; assay type: in vivo; details: 48 h, read-out: efficacy
Description: (§1) To produce a suitable preparation of active compound, 1 part by weight of active compound is mixed with the stated amounts of solvent and emulsifier, and the concentrate is diluted with water to the desired concentration.
To test for protective activity, young plants are sprayed with the active compound preparation at the stated application rate. After the spray coating has dried on, 2 small pieces of agar overgrown with Botrytis cinerea are placed on each leaf. The inoculated plants are then placed in a darkened chamber at about 20° C. and 100% relative atmospheric humidity.
Two days after the inoculation the size of the infected spots on the leaves is evaluated. 0% means an efficacy which corresponds to that of the control, whereas an efficacy of 100% means that no infection is observed.

Puccinia recondita = assay: Puccinia test (wheat) / protective; assay type: in vivo; details: 240 h, read-out: efficacy
Description: as §1
To test for protective activity, young plants are sprayed with the active compound preparation at the stated application rate. After the spray coating has dried on, the plants are sprayed with a conidia suspension of Puccinia recondita. The plants remain in an incubation cabin at 20° C. and 100% relative atmospheric humidity for 48 hours.
The plants are then placed in a greenhouse at a temperature of about 20° C. and a relative atmospheric humidity of 80% to promote the development of rust pustules.
(§2) Evaluation is carried out 10 days after the inoculation. 0% means an efficacy which corresponds to that of the control, whereas an efficacy of 100% means that no infection is observed.

Podosphaera leucotricha = assay: Podosphaera test (apple) / protective; assay type: in vivo; details: 240 h, read-out: efficacy
Description: as §1
(§3) To test for protective activity, young plants are sprayed with the active compound preparation at the stated application rate. After the spray coating has dried on, the plants are inoculated with an aqueous spore suspension of the apple mildew pathogen Podosphaera leucotricha. The plants are then placed in a greenhouse at about 23° C. and a relative atmospheric humidity of about 70%.
as §2

Sphaerotheca fuliginea = assay: Sphaerotheca test (cucumber) / protective; assay type: in vivo; details: Podosphaera fuliginea, 168 h, read-out: efficacy
Description: as §1
as §3, with “dried,” for “dried on,”, “Sphaerotheca fuliginea.” for “the apple mildew pathogen Podosphaera leucotricha.”
Evaluation is carried out 7 days after the inoculation. 0% means an efficacy which corresponds to that of the control, whereas an efficacy of 100% means that no infection is observed.

Uromyces appendiculatus = assay: Uromyces test (bean) / protective; assay type: in vivo; details: 240 h, read-out: efficacy
Description: as §1
To test for protective activity, young plants are sprayed with the active compound preparation at the stated application rate. After the spray coating has dried on, the plants are inoculated with an aqueous spore suspension of the bean rust pathogen Uromyces appendiculatus and then remain in an incubation cabin at about 20° C. and 100% relative atmospheric humidity for 1 day.
The plants are then placed in a greenhouse at about 21° C. and a relative atmospheric humidity of about 90%.
as §2

[1] = bean plants, protective spray, active compound concentration 10 ppm, evaluation 10 days after inoculation
[2] = wheat plants, protective spray, active compound concentration 1000 ppm, evaluation 10 days after inoculation
[3] = apple plants, protective spray, active compound concentration 100 ppm, evaluation 10 days after inoculation
[4] = cucumber plants, protective spray, active compound concentration 100 ppm, evaluation 7 days after inoculation

logP (logP (acidic, pH 2.3); pH 2.3, log P (pH 2.3), pH 2.3): 3.06
Molecule: COc1ccc(-c2ccc(Oc3cc(C)c(N)cc3C)cc2)cc1 [4-[4-(4-Methoxyphenyl)phenoxy]-2,5-dimethylaniline]

Molecule: CCN(C)C=Nc1cc(C)c(Oc2ccc(-c3ccccc3C(F)(F)F)cc2)cc1C [Compound 14]
pest or weed control at 250 ppm (Botrytis cinerea): ≥ 70%
logP (logP (acidic, pH 2.3); pH 2.3): 2.77
pest or weed control at 1000 ppm (Puccinia recondita): ≥ 70%
pest or weed control at 100 ppm (Podosphaera leucotricha): ≥ 70%
pest or weed control at 100 ppm (Sphaerotheca fuliginea): ≥ 70%

logP (logP (acidic, pH 2.3); pH 2.3, log P (pH 2.3), pH 2.3): 4.25
Molecule: Cc1cc(Oc2ccc(C3CCCCC3)cc2)c(C)cc1N [4-(4-Cyclohexylphenoxy)-2,5-dimethylaniline]

logP (logP (acidic, pH 2.3); pH 2.3, logP acidic, acidic): 2.06
Molecule: CCN(C)C=Nc1cc(C)c(Oc2ccc(-c3ccc(S(=O)(=O)CC)cc3)cc2)cc1C [Compound 2, N-ethyl-N′-(4-{[4′-(ethylsulfonyl)biphenyl-4-yl]oxy}-2,5-dimethylphenyl)-N-methylimidoformamide]
pest or weed control at 10 ppm (Uromyces appendiculatus; [1]): ≥ 70%
pest or weed control at 1000 ppm (Puccinia recondita; [2]): ≥ 70%
pest or weed control at 100 ppm (Podosphaera leucotricha; [3]): ≥ 70%
pest or weed control at 100 ppm (Sphaerotheca fuliginea; [4]): ≥ 70%

Molecule: CCCCO/N=C/c1ccc(-c2ccc(Oc3cc(C)c(N=CN(C)CC)cc3C)cc2)cc1 [Compound 10]
logP (logP (acidic, pH 2.3); pH 2.3): 3.51

logP (logP (acidic, pH 2.3); pH 2.3, logP acidic, acidic): 2.94
Molecule: CCN(C)C=Nc1cc(C)c(Oc2ccc(-c3ccc(C(F)(F)F)cc3)cc2)cc1C [Compound 3, N′-(2,5-dimethyl-4-{[4′-(trifluoromethyl)biphenyl-4-yl]oxy}phenyl)-N-ethyl-N-methylimidoformamide]
pest or weed control at 250 ppm (Botrytis cinerea; bean plants, protective spray, active compound concentration 250 ppm, evaluation two days after inoculation): ≥ 70%
pest or weed control at 1000 ppm (Puccinia recondita; [2]): ≥ 70%
pest or weed control at 100 ppm (Podosphaera leucotricha; [3]): ≥ 70%
pest or weed control at 100 ppm (Sphaerotheca fuliginea; [4]): ≥ 70%

logP (logP (acidic, pH 2.3); pH 2.3, logP acidic, acidic): 3.22
Molecule: Cc1cc(Oc2ccc(C3CCCC3)cc2)c(C)cc1/N=C/N1CCCCC1C (centres unmarked) [Compound 34, 4-(4-cyclopentylphenoxy)-2,5-dimethyl-N-[(1E)-(2-methylpiperidin-1-yl)methylene]aniline]
pest or weed control at 1000 ppm (Puccinia recondita; [2]): ≥ 70%

Molecule: 4-[(4′-fluorobiphenyl-4-yl)oxy]-2,5-dimethyl-N-[(1E)-pyrrolidin-1-ylmethylene]aniline [Compound 30]
logP acidic (logP (acidic, pH 2.3); acidic): 2.62

logP (logP (acidic, pH 2.3); pH 2.3, log P (pH 2.3), pH 2.3): 2.88
Molecule: Cc1cc(Oc2ccc(Br)cc2)c(C)cc1N [4-(4-Bromophenoxy)-2,5-dimethylaniline]

Molecule: CCN(C)C=Nc1cc(C)c(Oc2ccc(-c3ccc(/C=N/OC)cc3)cc2)cc1C [Compound 12]
logP (logP (acidic, pH 2.3); pH 2.3): 2.75

Molecule: Cc1cc(Oc2ccc(-c3ccccc3C)cc2)c(C)cc1/N=C/N1CCCCC1 [Compound 24]
pest or weed control at 250 ppm (Botrytis cinerea): ≥ 70%
logP (logP (acidic, pH 2.3); pH 2.3): 3.22
pest or weed control at 1000 ppm (Puccinia recondita): ≥ 70%
pest or weed control at 100 ppm (Podosphaera leucotricha): ≥ 70%
pest or weed control at 100 ppm (Sphaerotheca fuliginea): ≥ 70%

Molecule: CCN(C)C=Nc1cc(C)c(Oc2ccc(-c3ccccc3C(C)C)cc2)cc1C [Compound 15]
pest or weed control at 250 ppm (Botrytis cinerea): ≥ 70%
logP (logP (acidic, pH 2.3); pH 2.3): 3.06
pest or weed control at 1000 ppm (Puccinia recondita): ≥ 70%
pest or weed control at 100 ppm (Podosphaera leucotricha): ≥ 70%
pest or weed control at 100 ppm (Sphaerotheca fuliginea): ≥ 70%

logP (logP (acidic, pH 2.3); pH 2.3, logP acidic, acidic): 2.32
Molecule: CCN(C)C=Nc1cc(C)c(Oc2ccc(-c3ccc(C(C)=O)cc3)cc2)cc1C [Compound 8, N′-{4-[(4′-acetylbiphenyl-4-yl)oxy]-2,5-dimethylphenyl}-N-ethyl-N-methylimidoformamide]
pest or weed control at 10 ppm (Uromyces appendiculatus; [1]): ≥ 70%
pest or weed control at 100 ppm (Podosphaera leucotricha; [3]): ≥ 70%
pest or weed control at 100 ppm (Sphaerotheca fuliginea; [4]): ≥ 70%

Molecule: Cc1cc(Oc2ccc(-c3ccccc3F)cc2)c(C)cc1/N=C/N1CCCCC1 [Compound 21]
logP (logP (acidic, pH 2.3); pH 2.3): 2.98
pest or weed control at 1000 ppm (Puccinia recondita): ≥ 70%

Molecule: Cc1cc(Oc2ccc(-c3ccccc3C(C)C)cc2)c(C)cc1/N=C/N1CCCCC1 [Compound 25]
pest or weed control at 250 ppm (Botrytis cinerea): ≥ 70%
pest or weed control at 10 ppm (Uromyces appendiculatus): ≥ 70%
logP (logP (acidic, pH 2.3); pH 2.3): 2.46
pest or weed control at 100 ppm (Podosphaera leucotricha): ≥ 70%
pest or weed control at 100 ppm (Sphaerotheca fuliginea): ≥ 70%
